From patent publication US10081632B2, “Substituted tetrahydropyrido[3′,2′:4,5]pyrrolo[1,2-α]pyrazine-2-carboxamides as RSK inhibitors” (Phoenix Molecular Designs, priority 2016, dated 2018)
Marks after values point to notes of the source that are not given here.

Key:
JIMT-1 cells [1] = experiment: Monolayer growth inhibition, crystal violet assay; type: cell-based; conditions: Homo sapiens, JIMT-1, JIMT-1 (HER2), 5 days, single dose on day 1
Text: (§1) In all instances a single dose was given on day 1 of the experiment. […] Complete (100%) growth suppression was achievable with several of the compounds in multiple different cell lines.

MDA-MB-468 cells [2] = experiment: Monolayer growth inhibition, crystal violet assay; type: cell-based; conditions: Homo sapiens, MDA-MB-468, MDA-MB-468 (TNBC), 5 days, single dose on day 1
Text: as §1

T47D cells [3] = experiment: Monolayer growth inhibition, crystal violet assay; type: cell-based; conditions: Homo sapiens, T47D, T47D (ER/PR), 5 days, single dose on day 1
Text: as §1

HCC1937 cells [4] = experiment: Monolayer growth inhibition, crystal violet assay; type: cell-based; conditions: Homo sapiens, HCC1937, HCC1937 (TNBC, BRCA Mutant), 5 days, single dose on day 1
Text: as §1

MDA-MB-231 cells [5] = experiment: Soft agar growth inhibition assay; type: cell-based; conditions: Homo sapiens, MDA-MB-231; growth in soft agar (SA); read-out: MDA-MB-231 IC50 (SA)
CD34+ cells = experiment: Colony forming unit hematopoietic stem cell assay; type: cell-based, human
MDA-MB-468 cells [6] = experiment: Soft agar growth inhibition assay; type: cell-based, Human; conditions: MDA-MB-468 (TNBC), 14-22 days
[7] = test system: phosphorylated Y-box binding protein-1 (YB-1) at serine 102 (P-YB-1S102); experiment: Immunoblotting of cell signalling, loss of P-YB-1 in MDA-MB-231 cells
Description: Following desired experimental conditions, breast cancer cell lines grown and treated in 6 well plates or 100 mm culture dishes (Grenier Bio-One) were placed on ice and the supernatant from each well was removed and the cells were washed in cold PBS. Following removal of PBS, cells were exposed to radioimmunoprecipitation assay (RIPA) buffer (50 mM Tris-HCl (pH 8), 150 mM NaCl, 1% NP-40, 0.5% sodium deoxycholate, 0.1% SDS; Fisher Scientific) supplemented with 1% phosphatase inhibitor (Fisher Scientific) and 1% protease inhibitor (Fisher Scientific) for 10 minutes. Samples were transferred to eppendorf tubes, vortexed and then centrifuged at 14 000 rpm for 10 minutes. Supernatants were collected as whole cell lysates.
To begin, the protein content of the lysates was measured using the Bicinchoninic Acid (BCA) Protein Assay Kit (Pierce), which included a protein standard curve generated with bovine serum albumin. Appropriate volumes of samples and loading buffer (50 mM Tris-HCl (pH 6.8), 2% SDS, 10% glycerol, 1% j-mercaptoethanol, 12.5 mM EDTA, 0.02% bromophenol blue) were mixed, ensuring that equal amounts of protein were loaded. For the majority of experiments in this study, 30 μg of protein per well was loaded. Samples were then resolved on SDS-PAGE (polyacrylamide gel electrophoresis) using various percentages of acrylamide gels (8%-12%), depending on the proteins of interest. SDS-PAGE was run in SDS running buffer (25 mM Tris, 192 mM glycine, 0.1% SDS) and then transferred to nitrocellulose membranes (Bio-Rad) in transfer buffer (48 mM Tris, 39 mM glycine, 20% (v/v) methanol) at 100 volts for 90 minutes at room temperature. Immunoblots were then blocked in 5% skim milk in tris-buffered saline with 0.1% Tween-20 (TBS-T; 50 mM Tris-HCl, pH 7.5, 150 mM NaCl, 0.1% (v/v) Tween-20 (Fisher Scientific)) for 1 to 2 hours. Immunoblots were then incubated with selected primary antibodies diluted in TBS-T with 0.1% gelatin (Bio-Rad) and 0.05% sodium azide (Alfa Aesar) overnight. Following washes with TBT-T 4 times for 8 to 10 minutes, immunoblots were incubated with appropriate secondary antibodies conjugated to horseradish peroxidise (Cell Signalling Technology) diluted in TBS-T plus 5% skim milk at a ratio of 1:5000 for 2 hours at room temperature. After an additional round of washes in TBS-T, immunoblots were exposed to combined enhanced chemiluminescence (ECL) reagents (Fisher Scientific) for 1 minute and developed using ChemiDoc MP Imaging System (Bio-Rad). For certain immunoblots, bands of proteins of interest were scanned and band intensity ratios were determined by densitometric analysis (ImageJ). […] Total YB-1 was used as a loading control (1:5000 Abcam). […] To assess whether cells are actively undergoing cell death, the activity of poly ADP ribose polymerase (PARP) (1:1000 CST) was also measured using the immunoblotting method.

JIMT-1 cells [8] = experiment: Monolayer growth inhibition, Alamar blue assay; type: cell-based; conditions: Homo sapiens, JIMT-1, JIMT-1 (HER2), 5 days, single dose on day 1
Text: (§2) In all instances a single dose was given on day 1 of the experiment.

4T1 cells = experiment: Monolayer growth inhibition, Alamar blue assay; type: cell-based; conditions: Mus musculus, 4T1, 4T1 (TNBC), 5 days, single dose on day 1
Text: as §2

HCC1937 cells [9] = experiment: Monolayer growth inhibition, Alamar blue assay; type: cell-based; conditions: Homo sapiens, HCC1937, HCC1937 (TNBC, BRCA Mutant), 5 days, single dose on day 1
Text: as §2

PC3 cells = experiment: Monolayer growth inhibition, Alamar blue assay; type: cell-based; conditions: Homo sapiens, PC-3; PC3 (Prostate), 5 days, single dose on day 1
Text: as §2

T47D cells [10] = experiment: Monolayer growth inhibition, Alamar blue assay; type: cell-based, Human; conditions: T47D (ER/PR), 5 days, single dose on day 1
Text: as §2

SUM149-PTXR cells = experiment: Monolayer growth inhibition, Alamar blue assay; type: cell-based, Human; conditions: SUM149-PTXR (TNBC, BRCA Mutant), 5 days, single dose on day 1
Text: as §2

MDA-MB-231 cells [11] = experiment: Combination with paclitaxel, monolayer growth (crystal violet); conditions: MDA-MB-231, 5 days
Description: 1×10^3 cells per well were seeded for a final volume of 200 μl per well and plates were incubated for 5 days at 37° C. in a humidified incubator with 5% CO2. Following the incubation period, cell survival was quantified by Alamar blue assay (Life Technologies). Briefly, media from each well was replaced with 100 μl of phosphate buffer saline (PBS, Life Technologies) and cells were incubated with 5% Alamar blue, which incorporates a propriety redox indicator that changes colour in response to metabolic activity, for up to 2 hours. During this period of incubation, the absorbance at 570 nm and 600 nm was measured at various time points, depending on the cell line or sample. Percent survival was calculated by comparing the absorbance ratio of the test well to the control well multiplied by 100%, as indicated in the following formula:
Following, plates were prepared for crystal violet staining. To begin, 100 μl of an 8% formaldehyde (Alfa Aesar) solution diluted in PBS was added to each well and plates were stored at 4° C. overnight. Next, the formaldehyde solution was discarded and the wells were washed with 200 μl ultrapure water per well three times. Following, 50 μl of a 0.5% crystal violet solution (0.5% w/v crystal violet (Alfa Aesar), 25% methanol (VWR)) was added to each well and incubated at room temperature for 20 minutes. The crystal violet solution was discarded and wells were washed with 200 μl ultrapure water per well three times. Next, 50 μl of a 5% sodium dodecyl sulphate (SDS) (Alfa Aesar) was added to each well and the absorbance at 590 nm was measured.

MDA-MB-231 cells [12] = experiment: Immuno-oncology gene expression (HLA-DRA, CIITA, CD274 mRNA); type: cell-based, Human; conditions: Compound 16 2 or 4 uM, Compound 18 1, 2, or 4 uM
Text: (§3) A key feature of cancer is low immunogenicity. This can occur by several mechanisms that allow the cells to escape immune recognition. […] HLA-DRA is a member of MHC-II genes and CIITA is the master regulator of MHC II transcription. Thus it was surprising that CIITA, which would be expected to regulate MHC II gene expression, was not altered by RSK inhibition. […] HLA-DRA is important for immune recognition while PD-L1 is involved in immune checkpoints.

JIMT-1 cells [13] = experiment: as above; type: cell-based, Human
Text: as §3

[14] = Solubility assessment, 20 mg/ml solution; type: physicochemical
How it was run: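 Compounds from 100 mM DMSO stocks diluted to 20 mg/ml in DMEM with FBS and penicillin/streptomycin, vortexed and checked visually for precipitate. One compound instead diluted to 20 mg/ml in phosphate-buffered saline, solution pH 2.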

C[C@@H]1CNC(=O)c2cc3ccc(C(=O)Nc4cnn(Cc5ccc(N)cc5)c4)nc3n21 [Compound 18, (R)—N-(1-(4-aminobenzyl)-1H-pyrazol-4-yl)-9-methyl-6-oxo-6,7,8,9-tetrahydropyrido[3′,2′:4,5]pyrrolo[1,2-a]pyrazine-2-carboxamide]
IC50 (JIMT-1 cells [1]): 11.1 ± 0.5 µM | IC50 (MDA-MB-468 cells [2]): 2.3 ± 0.9 µM | IC50 (T47D cells [3]): 2.2 ± 0.8 µM | IC50 (HCC1937 cells [4]): 7.7 ± 3.5 µM | IC50 (MDA-MB-231 cells [5]): 0.1 µM | IC50 (CD34+ cells; Homo sapiens, Hematopoietic stem cell, CD34+ cells from peripheral blood, read-out: CD34+ (PB) IC50): 16.3 µM | Therapeutic Window (CD34+ cells; ratio IC50 against CD34+ cells and MDA-MB-231 cells (SA)): 163X | IC50 (MDA-MB-468 cells [6]): 0.3 ± 0.1 µM | Loss of P-YB-1 ([7]; MDA-MB-231 cells, 0.01, 0.1, 1, or 10 uM, 24 hrs): dose dependent loss of P-YB-1 | Loss of P-YB-1 ([7]; MDA-MB-231 cells, 0.01-1 uM, 96 hrs): dose dependent loss of P-YB-1 | IC50 (JIMT-1 cells [8]): 13.1 ± 6.4 µM | IC50 (4T1 cells): 5.3 ± 2.5 µM | IC50 (HCC1937 cells [9]): 9.2 ± 1.1 µM | IC50 (PC3 cells): 5.5 ± 0.5 µM | IC50 (T47D cells [10]): 3.6 ± 1.7 µM | IC50 (SUM149-PTXR cells): 2.1 ± 0.3 µM | Coefficient of Drug Interaction (CDI) (MDA-MB-231 cells [11]; Compound 18 0.2 μM with paclitaxel (0.3 nM)): 1.6 | Coefficient of Drug Interaction (CDI) (MDA-MB-231 cells [11]; Compound 18 0.4 μM with paclitaxel (0.3 nM)): 1.2 | Coefficient of Drug Interaction (CDI) (MDA-MB-231 cells [11]; Compound 18 0.8 μM with paclitaxel (0.3 nM), considered synergistic): 0.8* | Coefficient of Drug Interaction (CDI) (MDA-MB-231 cells [11]; Compound 18 1.6 μM with paclitaxel (0.3 nM), considered synergistic): 0.4* | Coefficient of Drug Interaction (CDI) (MDA-MB-231 cells [11]; Compound 18 3.1 μM with paclitaxel (0.3 nM), considered synergistic): 0.2* | Coefficient of Drug Interaction (CDI) (MDA-MB-231 cells [11]; Compound 18 […] with paclitaxel (0.3 nM), considered synergistic): 0.4* | CD274 (gene encoding PD-L1) levels (MDA-MB-231 cells [12]): reduced levels of CD274 | HLA-DRA mRNA (MDA-MB-231 cells [12]): elevated levels of HLA-DRA mRNA | mRNA expression of CIITA (MDA-MB-231 cells [12]): little effect | HLA-DRA mRNA (JIMT-1 cells [13]): elevated levels of HLA-DRA mRNA | mRNA expression of CIITA (JIMT-1 cells [13]): little effect | CD274 (gene encoding PD-L1) levels (JIMT-1 cells [13]; 1-20 uM): inhibited CD274 | Solubility, 20 mg/ml Solution ([14]; 100 mM in DMSO diluted in DMEM growth media to 20 mg/ml): Soluble | pH of 20 mg/ml solution ([14]; DMSO stock diluted in DMEM, pH test strips): 9
